These results are taken from patent US11739070B2, “C5A receptor modulators” (IDORSIA PHARMACEUTICALS LTD, priority 2018, dated 2023).

SMILES strings stand for the structures.

For the assay, the target named is T1, C5AR1 (Homo sapiens, UniProt P21730).
T1 construct: host or cells: CHO-K1
T1 sequence (P21730 1-350): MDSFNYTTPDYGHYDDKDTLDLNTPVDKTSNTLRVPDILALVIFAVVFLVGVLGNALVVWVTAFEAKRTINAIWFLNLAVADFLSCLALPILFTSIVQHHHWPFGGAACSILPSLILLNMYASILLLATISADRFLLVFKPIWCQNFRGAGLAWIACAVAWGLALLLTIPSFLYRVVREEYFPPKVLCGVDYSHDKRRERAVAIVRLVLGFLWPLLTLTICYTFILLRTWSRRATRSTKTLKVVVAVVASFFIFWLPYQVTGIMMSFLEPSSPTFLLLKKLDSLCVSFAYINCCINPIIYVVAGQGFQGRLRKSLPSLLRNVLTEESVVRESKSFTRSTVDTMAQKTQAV
As to the kind of experiment: hC5a DISCO IC50 assay (PathHunter beta-arrestin, antagonist mode). The format is cell-based. To be noted: CHO-K1 C5AR1 beta-arrestin cell line; antagonist vs 1-10 nM C5a agonist; geometric mean values; read-out: C5aR IC50. Put shortly:
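Antagonist added first, then 1-10 nM C5a agonist; cells incubated 1.5 h at 37 °C. Beta-arrestin signal developed with PathHunter detection reagent, 45 min at RT. IC50 in nmol/l from serial antagonist dilutions, reported as geometric mean of several measurements.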
For orientation: IC50 means the concentration at which inhibition is half-maximal. Take `COc1cccc2c1n(Cc1ccccc1C(F)(F)F)c(=O)n2[C@@H]1CCN(c2c(F)cccc2CN2CCC(O)CC2)C1` [Example 134, 1-{(R)-1-[2-Fluoro-6-(4-hydroxy-piperidin-1-ylmethyl)-phenyl]-pyrrolidin-3-yl}-4-methoxy-3-(2-trifluoromethyl-benzyl)-1,3-dihydro-benzoimidazol-2-one]: the IC50 came to 2260 nM. As for `COc1cccc2c1n(Cc1ccccc1OCC1CC1)c(=O)n2C1CCN(c2c(C)cccc2F)CC1` [Example 224, 3-(2-Cyclopropylmethoxy-benzyl)-1-[1-(2-fluoro-6-methyl-phenyl)-piperidin-4-yl]-4-methoxy-1,3-dihydro-benzoimidazol-2-one], the figure is 18 nM. Under `COc1cccc2c1n(Cc1ccccc1C(F)(F)F)c(=O)n2[C@@H]1CCN(c2nncc(Cl)c2Cl)C1` [Example 157, 1-[(R)-1-(4,5-Dichloro-pyridazin-3-yl)-pyrrolidin-3-yl]-4-methoxy-3-(2-trifluoromethyl-benzyl)-1,3-dihydro-benzoimidazol-2-one] stands 630 nM; under `COc1cccc2c1n(Cc1ccccc1OC1COC1)c(=O)n2C1CCN(c2c(C)cccc2F)CC1` [Example 225, 1-[1-(2-Fluoro-6-methyl-phenyl)-piperidin-4-yl]-4-methoxy-3-[2-(oxetan-3-yloxy)-benzyl]-1,3-dihydro-benzoimidazol-2-one], 40 nM; under `COc1cccc2c1n(Cc1cccnc1C(F)(F)F)c(=O)n2C1CCN(c2c(C)cccc2C)CC1` [Example 54, 1-[1-(2,6-Dimethyl-phenyl)-piperidin-4-yl]-4-methoxy-3-(2-trifluoromethyl-pyridin-3-ylmethyl)-1,3-dihydro-benzoimidazol-2-one], 43 nM.

Turning to `COc1cccc2c1n(Cc1ccccc1C(F)(F)F)c(=O)n2[C@@H]1CCN(C(=O)c2ccccc2)C1` [Example 27, 1-((R)-1-Benzoyl-pyrrolidin-3-yl)-4-methoxy-3-(2-trifluoromethyl-benzyl)-1,3-dihydro-benzoimidazol-2-one], the IC50 was 3340 nM. As for `COc1cccc2c1n(Cc1nccnc1OC(C)C)c(=O)n2[C@@H]1CCN(c2c(C)cccc2F)C1` [Example 177, 1-[(R)-1-(2-Fluoro-6-methyl-phenyl)-pyrrolidin-3-yl]-3-(3-isopropoxy-pyrazin-2-ylmethyl)-4-methoxy-1,3-dihydro-benzoimidazol-2-one], the figure is 24 nM; as for `COc1nccc2c1n(Cc1ccccc1C(F)(F)F)c(=O)n2[C@@H]1CCN(c2c(F)cccc2F)C1` [Example 42, 1-[(R)-1-(2,6-Difluoro-phenyl)-pyrrolidin-3-yl]-4-methoxy-3-(2-trifluoromethyl-benzyl)-1,3-dihydro-imidazo[4,5-c]pyridin-2-one], 75 nM; as for `COc1nccnc1Cn1c(=O)n(C2CCN(c3c(C)cccc3F)CC2)c2cccc(OC)c21` [Example 170, 1-[1-(2-Fluoro-6-methyl-phenyl)-piperidin-4-yl]-4-methoxy-3-(3-methoxy-pyrazin-2-ylmethyl)-1,3-dihydro-benzoimidazol-2-one], 45 nM.

Take `COc1ccccc1Cn1c(=O)n([C@@H]2CCN(c3c(C)cccc3F)C2)c2cc[nH]c(=O)c21` [Example 81, 1-[(R)-1-(2-Fluoro-6-methyl-phenyl)-pyrrolidin-3-yl]-3-(2-methoxy-benzyl)-3,5-dihydro-1H-imidazo[4,5-c]pyridine-2,4-dione]: the IC50 was 2430 nM. As for `COc1cccc2c1n(Cc1ccccc1C(F)(F)F)c(=O)n2[C@@H]1CCN(c2c(F)cncc2F)C1` [Example 34, 1-[(R)-1-(3,5-Difluoro-pyridin-4-yl)-pyrrolidin-3-yl]-4-methoxy-3-(2-trifluoromethyl-benzyl)-1,3-dihydro-benzoimidazol-2-one], the figure is 27 nM. For the compound `COc1cccc2c1n(Cc1c(F)cc(F)cc1OC(C)C)c(=O)n2[C@@H]1CCN(c2c(C)cccc2F)C1` [Example 220, 3-(2,4-Difluoro-6-isopropoxy-benzyl)-1-[(R)-1-(2-fluoro-6-methyl-phenyl)-pyrrolidin-3-yl]-4-methoxy-1,3-dihydro-benzoimidazol-2-one], the IC50 was determined as 109 nM.

In the case of `COc1cccc(F)c1N1CC[C@@H](n2c(=O)n(Cc3ccccc3C(F)(F)F)c3c(=O)[nH]ccc32)C1` [Example 56, 1-[(R)-1-(2-Fluoro-6-methoxy-phenyl)-pyrrolidin-3-yl]-3-(2-trifluoromethyl-benzyl)-3,5-dihydro-1H-imidazo[4,5-c]pyridine-2,4-dione], the IC50 is 717 nM. Under `COc1cccc2c1n(Cc1ccccc1C(F)(F)F)c(=O)n2[C@@H]1CCN(c2c(F)cccc2CN(C)CCO)C1` [Example 107, 1-[(R)-1-(2-Fluoro-6-{[(2-hydroxy-ethyl)-methyl-amino]-methyl}-phenyl)-pyrrolidin-3-yl]-4-methoxy-3-(2-trifluoromethyl-benzyl)-1,3-dihydro-benzoimidazol-2-one] stands 1320 nM. For the compound `COC(=O)N1CC[C@@H](n2c(=O)n(Cc3ccccc3C(F)(F)F)c3c(OC)cccc32)C1` [Example 26, (R)-3-[4-Methoxy-2-oxo-3-(2-trifluoromethyl-benzyl)-2,3-dihydro-benzoimidazol-1-yl]-pyrrolidine-1-carboxylicacid methyl ester], the IC50 was determined as 459 nM.

Regarding `COC1CN(c2nccc3c2n(Cc2ccccc2C(F)(F)F)c(=O)n3[C@@H]2CCN(c3c(C)cccc3F)C2)C1` [Example 205, 1-[(R)-1-(2-Fluoro-6-methyl-phenyl)-pyrrolidin-3-yl]-4-(3-methoxy-azetidin-1-yl)-3-(2-trifluoromethyl-benzyl)-1,3-dihydro-imidazo[4,5-c]pyridin-2-one], the IC50 was determined as 45 nM. As for `COC(=O)c1cccc2c1n(Cc1ccccc1C(F)(F)F)c(=O)n2[C@@H]1CCN(c2c(F)cccc2C#N)C1` [Example 98, 1-[(R)-1-(2-Cyano-6-fluoro-phenyl)-pyrrolidin-3-yl]-2-oxo-3-(2-trifluoromethyl-benzyl)-2,3-dihydro-1H-benzoimidazole-4-carboxylic acid methyl ester], the figure is 165 nM; as for `COc1cccc2c1n(Cc1cncnc1C(F)(F)F)c(=O)n2[C@@H]1CCN(c2c(F)cccc2C#N)C1` [Example 153, 3-Fluoro-2-{(R)-3-[4-methoxy-2-oxo-3-(4-trifluoromethyl-pyrimidin-5-ylmethyl)-2,3-dihydro-benzoimidazol-1-yl]-pyrrolidin-1-yl}-benzonitrile], 215 nM; as for `COc1cccc2c1n(Cc1ccccc1OC(F)(F)F)c(=O)n2[C@@H]1CCN(c2c(F)cccc2F)C1` [Example 23, 1-[(R)-1-(2,6-Difluoro-phenyl)-pyrrolidin-3-yl]-4-methoxy-3-(2-trifluoromethoxy-benzyl)-1,3-dihydro-benzoimidazol-2-one], 8 nM.

As to `COc1cccc2c1n(Cc1ncccc1C(F)(F)F)c(=O)n2C1CCN(c2c(F)cccc2F)CC1` [Example 76, 1-[1-(2,6-Difluoro-phenyl)-piperidin-4-yl]-4-methoxy-3-(3-trifluoromethyl-pyridin-2-ylmethyl)-1,3-dihydro-benzoimidazol-2-one], the IC50 came out at 38 nM. As for `COc1cccc2c1n(Cc1ccccc1C(F)(F)F)c(=O)n2C1C2CC1CN(c1c(C)cccc1F)C2` (centres unmarked) [Example 197, 1-[3-(2-Fluoro-6-methyl-phenyl)-3-aza-bicyclo[3.1.1]hept-6-yl]-4-methoxy-3-(2-trifluoromethyl-benzyl)-1,3-dihydro-benzoimidazol-2-one], the figure is 74 nM; as for `COc1cccc2c1n(Cc1ccccc1C(F)(F)F)c(=O)n2[C@@H]1CCN(c2c(F)cccc2CN2CCC2)C1` [Example 108, 1-[(R)-1-(2-Azetidin-1-ylmethyl-6-fluoro-phenyl)-pyrrolidin-3-yl]-4-methoxy-3-(2-trifluoromethyl-benzyl)-1,3-dihydro-benzoimidazol-2-one], 360 nM. Take `Cc1cccc(F)c1N1CC[C@@H](n2c(=O)n(Cc3ccccc3C(F)(F)F)c3c(OC4CCN(C)C4)nccc32)C1` (stereo partly drawn) [Example 130, 1-[(R)-1-(2-Fluoro-6-methyl-phenyl)-pyrrolidin-3-yl]-4-(1-methyl-pyrrolidin-3-yloxy)-3-(2-trifluoromethyl-benzyl)-1,3-dihydro-imidazo[4,5-c]pyridin-2-one]: the IC50 was 3910 nM.

`Cc1cccc(C)c1N1CC[C@@H](n2c(=O)n(Cc3ccccc3C(F)(F)F)c3c(O)cccc32)C1` [Example 44, 1-[(R)-1-(2,6-Dimethyl-phenyl)-pyrrolidin-3-yl]-4-hydroxy-3-(2-trifluoromethyl-benzyl)-1,3-dihydro-benzoimidazol-2-one]: the IC50 came to 13 nM. Under `COCCOc1ccccc1N1CC[C@@H](n2c(=O)n(Cc3ccccc3C(F)(F)F)c3c(OC)cccc32)C1` [Example 204, 4-Methoxy-1-{(R)-1-[2-(2-methoxy-ethoxy)-phenyl]-pyrrolidin-3-yl}-3-(2-trifluoromethyl-benzyl)-1,3-dihydro-benzoimidazol-2-one] stands 30 nM; under `COc1cccc2c1n(Cc1ccccc1C(F)(F)F)c(=O)n2C1CCN(c2c(Cl)c(C3CC3)nn2C)CC1` [Example 24, 1-[1-(4-Chloro-5-cyclopropyl-2-methyl-2H-pyrazol-3-yl)-piperidin-4-yl]-4-methoxy-3-(2-trifluoromethyl-benzyl)-1,3-dihydro-benzoimidazol-2-one], 330 nM.
